This is an account of results in patent US5171751A, “Benzofuran/benzofuranalkyl-N-terminal amino hydroxy” (G. D. Searle & Co., priority 1991, dated 1992).

One assay deals with T1, human renin (Homo sapiens, UniProt P00797).
T1 construct: purchased National Institute for Biological Standards, London
T1 sequence (P00797 67-406): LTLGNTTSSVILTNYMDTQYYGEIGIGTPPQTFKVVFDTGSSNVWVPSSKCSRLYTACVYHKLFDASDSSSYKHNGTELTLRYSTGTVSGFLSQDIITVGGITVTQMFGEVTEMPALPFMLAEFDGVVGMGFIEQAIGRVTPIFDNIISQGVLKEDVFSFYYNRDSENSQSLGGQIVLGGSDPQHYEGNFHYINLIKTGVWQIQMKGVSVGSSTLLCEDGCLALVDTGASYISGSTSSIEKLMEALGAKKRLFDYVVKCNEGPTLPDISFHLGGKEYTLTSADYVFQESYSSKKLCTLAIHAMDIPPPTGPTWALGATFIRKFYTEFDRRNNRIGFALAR
The assay can be described thus: In vitro human renin inhibition (angiotensin I determined by radioimmunoassay). Conditions: 37° C., pH 7.4, two hours. It counts as biochemical. On the procedure: Compounds of Formula I were evaluated as inhibitors of human renin in an in vitro assay. This human renin inhibition test has been previously described in detail Papaioannou et al., Clinical and Experimental Hypertension, A7(9), 1243-1257 (1985)]. Human renin was obtained from the National Institute for Biological Standards, London. An incubation mixture was prepared containing in a total volume of 0.25 mL 100 mM Tris-acetate buffer at pH 7.4, 25×10^-6 Goldblatt units of renin, 0.05mL of plasma from human volunteers taking oral contraceptives, 6.0 mM sodium EDTA, 2.4 mM phenylmethyl sulfonyl fluoride, 1.5 mM 8-hydroxyquinoline, 0.4 mg/mL BSA, and 0.024 mg/mL neomycin sulfate. This mixture was incubated for two hours at 37° C. in the presence or absence of renin inhibitors. The produced angiotensin I was determined by radioimmunoassay (New England Nuclear kit). Test compounds to be assayed were dissolved in DMSO and diluted with 100mM Tris-acetate buffer at pH 7.4 containing 0.5% BSA to the appropriate concentration. The final concentration of organic solvent in the reaction mixture was less than 1%. Control incubations at 37° C. were used to correct for effects of organic solvent on renin activity.

The test system of the next assay is pepsin. Conditions: cited from earlier work.
The next assay has as its system renin. Conditions: cited from earlier work.
Another assay relates to acid proteases. Conditions: cited from earlier work.
Another assay deals with cathepsin D. Conditions: cited from earlier work.
The next assay relates to hog renin. Conditions: after injection of hog renin into nephrectomized rats; cited from earlier work.

Square brackets hold non-standard residues; d marks the D form. Peptide text beside a SMILES is read from it. * marks the point of attachment. Sta = CC(C)C[C@H](N)[C@@H](O)CC(=O)O; Isovaleryl = CC(C)CC(=O)*

By IC50 is commonly meant the concentration at which inhibition is half-maximal. The low end stands for greater potency, the high end for weaker potency.

`CC(C)C[C@H](O)[C@H](O)[C@H](CC1CCCCC1)NC(=O)[C@H](C)CNC(=O)CCc1c[nH]c2ccccc12` [Example 22, N-[3-[[1S, 1R^* -(cyclohexylmethyl)-2S^*, 3R^* -dihydroxy-5-methylhexyl]amino]-2S^* -methyl-3-oxopropyl]-1H-indole-3-propanamide] yielded an IC50 against human renin of 430 nM.
For the molecule `CC(C)CC(=O)N[C@H](C(=O)N[C@H](C(=O)N[C@@H](CC(C)C)[C@@H](O)CC(=O)N[C@@H](C)C(=O)N[C@@H](CC(C)C)[C@@H](O)CC(=O)O)C(C)C)C(C)C` [pepstatin] (Isovaleryl-VV[Sta]A[Sta]-OH), the inhibitor of pepsin result with pepsin was “inhibitor”. For the same molecule, the inhibitor of renin entry in the assay on renin is recorded as “inhibitor”. Also, in the assay on acid proteases, the “inhibiting acid proteases in addition to renin” value is on record as “inhibiting acid proteases in addition to renin”. Further, in the assay with cathepsin D, the “inhibitor of cathepsin D” value was “inhibitor”. Besides, the “reduction of blood pressure in vivo” value with hog renin is “reduce blood pressure in vivo”.
